PubChem BioAssay (NCI)
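Test compounds were applied to cells in 96-well plates for 48 hours at 5 doses. TGI: total growth inhibition.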

Columns and labels:
Assay in all cases: NCI anticancer screen, dose series, 48 h
ACHN renal = system: ACHN renal
COLO 205 colon = system: COLO 205 colon
EKVX NSCLC = system: EKVX NSCLC
HCT-15 colon = system: HCT-15 colon
HOP-62 NSCLC = system: HOP-62 NSCLC
KM12 colon = system: KM12 colon
MCF7 breast = system: MCF7 breast
MDA-MB-231 breast = system: MDA-MB-231 breast
MDA-MB-435 = system: MDA-MB-435
NCI-H23 lung = system: NCI-H23 lung
NCI-H522 lung = system: NCI-H522 lung
PC-3 prostate = system: PC-3 prostate
RPMI-8226 leukemia = system: RPMI-8226 leukemia
SK-MEL-2 melanoma = system: SK-MEL-2 melanoma
SK-MEL-28 melanoma = system: SK-MEL-28 melanoma
SK-MEL-5 melanoma = system: SK-MEL-5 melanoma
SNB-19 CNS = system: SNB-19 CNS
SW-620 colon = system: SW-620 colon
UACC-257 melanoma = system: UACC-257 melanoma
UO-31 renal = system: UO-31 renal

| Structure (SMILES) | TGI (ACHN renal) [µM] | TGI (COLO 205 colon) [µM] | TGI (EKVX NSCLC) [µM] | TGI (HCT-15 colon) [µM] | TGI (HOP-62 NSCLC) [µM] | TGI (KM12 colon) [µM] | TGI (MCF7 breast) [µM] | TGI (MDA-MB-231 breast) [µM] | TGI (MDA-MB-435) [µM] | TGI (NCI-H23 lung) [µM] | TGI (NCI-H522 lung) [µM] | TGI (PC-3 prostate) [µM] | TGI (RPMI-8226 leukemia) [µM] | TGI (SK-MEL-2 melanoma) [µM] | TGI (SK-MEL-28 melanoma) [µM] | TGI (SK-MEL-5 melanoma) [µM] | TGI (SNB-19 CNS) [µM] | TGI (SW-620 colon) [µM] | TGI (UACC-257 melanoma) [µM] | TGI (UO-31 renal) [µM] |
| --- | --- | --- | --- | --- | --- | --- | --- | --- | --- | --- | --- | --- | --- | --- | --- | --- | --- | --- | --- | --- |
| Nc1cc2c3c(cccc3c1)C(=O)N(c1ccc(OCCN3CCCCC3)cc1)C2=O | 29.4 | 35.7 | 45.7 | 25.4 | 31.8 | 41.3 | 36.3 | 31.5 | 55.7 | 30.2 | 35.2 | 32.9 | 41.7 | 31.6 | 44.8 | 35.2 | 32.4 | 48.5 | 31.6 | 24.1 |
| COc1[nH]c(C(Cl)(Cl)Cl)c(Cl)c(=O)c1Cl | > 100 | > 100 | > 100 | > 100 | > 100 | > 100 | > 100 | > 100 | > 100 | > 100 | > 100 | > 100 | > 100 | > 100 | > 100 | > 100 | > 100 | > 100 | > 100 | > 100 |
| O=S(=O)(N=S(c1ccc(Cl)cc1)c1ccc(Cl)cc1)c1ccccc1 | > 100 | > 100 | > 100 | > 100 | > 100 | > 100 | > 100 | > 100 | > 100 | > 100 | > 100 | > 100 | > 100 | > 100 | > 100 | > 100 | > 100 | > 100 | > 100 | > 100 |
| CC1(C)C=C(/C=N/Nc2ccc([N+](=O)[O-])cc2)C(C#N)=C(O)C1(C#N)C#N | > 100 | > 100 | > 100 | > 100 | > 100 | > 100 | > 100 | > 100 | > 100 | > 100 | > 100 | > 100 | > 100 | > 100 | > 100 | > 100 | > 100 | > 100 | > 100 | > 100 |
| CC(C)[Si](OC1=C(C(=O)Nc2ccccc2Cl)CCCCC1)(C(C)C)C(C)C | > 100 | > 100 | > 100 | > 100 | > 100 | > 100 | > 100 | > 100 | > 100 | > 100 | > 100 | > 100 | > 100 | > 100 | > 100 | > 100 | > 100 | > 100 | > 100 | > 100 |
| Cc1ccc(S(=O)(=O)OC2=C/C(=N\c3onc(C)c3C)c3ccccc3C2=O)cc1 | > 100 | > 100 | > 100 | > 100 | 54.8 | 43 | 33.5 | 41.6 | 31.8 | 73.8 | 21.1 | 40.1 | 53.8 | 26 | > 100 | 38.7 | 64.8 | 80.1 | 34.4 | 30.7 |
| CC(=O)CCNc1ccc(-c2cc(-c3ccc(N(C)C)cc3)nc3ccc4ccccc4c23)cc1 | > 100 | > 88.3 | > 100 | > 100 | > 100 | > 100 | > 100 | > 100 | > 100 | > 100 | > 100 | > 100 | > 100 | > 100 | > 100 | > 100 | > 100 | > 100 | > 100 | > 100 |
| O=c1c2cc([N+](=O)[O-])ccc2n(Cc2ccccc2)n1Cc1ccccc1 | > 31.6 | > 31.6 | > 31.6 | > 31.6 | > 31.6 | 22.2 | 28.6 | 29.1 | 17.5 | > 31.6 | 23.6 | 31 | 18.8 | 20.2 | > 31.6 | 13.3 | > 31.6 | > 31.6 | 19.8 | 27.3 |
| NS(=O)(=O)c1ccc(NNc2c3ccccc3nc3ccccc23)cc1 | 19.9 | 13.9 | 21.1 | 15.5 | 22.4 | 16.5 | 15.8 | 25.9 | 17 | 22.1 | 16.4 | 16.1 | 21.6 | 18.1 | 17.1 | 17.2 | 25.7 | 16.6 | 18 | 18.1 |
| CC1=NN(C(=O)CC(=O)Nc2ccccc2Cl)C(=O)C1N=Nc1ccc(C(=O)O)cc1 (stereo not given) | > 100 | > 100 | > 100 | > 100 | > 100 | > 100 | > 100 | > 100 | > 100 | > 100 | > 100 | > 100 | > 100 | > 100 | > 100 | > 100 | > 100 | > 100 | > 100 | > 100 |
| CC1=C2C(=O)OCC23C=COC3(C)O1 (stereo not given) | > 100 | 47.7 | > 100 | > 100 | > 100 | 95.9 | > 100 | > 100 | 53.3 | > 100 | 78.9 | > 100 | > 100 | > 100 | 46.3 | 35.6 | > 100 | > 100 | > 100 | > 100 |
